In patent US6395684B1, “Selective herbicides based on a substituted phenyl sulfonyl amino carbonyl triazolinone” (Bayer Aktiengesellschaft, priority 1998, dated 2002):
Structures can show the parent of a compound that is named as a salt.

Columns and labels:
Type in all cases: in vivo
[1] = test system: weeds, such as, for example, Agropyron, Alopecurus, Avena, Bromus and Lolium; experiment: Post-emergence test/greenhouse, summary for weeds; settings: greenhouse
Experimental: Post-emergence Test/greenhouse Solvent: 5 parts by weight of acetone Emulsifier: 1 part by weight of alkylaryl polyglycol ether To produce a suitable preparation of active compound, 1 part by weight of active compound is mixed with the stated amount of solvent, the stated amount of emulsifier is added and the concentrate is diluted with water to the desired concentration. Test plants which have a height of 5-15 cm are sprayed with the preparation of active compound such that the particular amounts of active compound desired are applied per unit area. The concentration of the spray liquor is chosen so that the particular amounts of active compound desired are applied in 500 l of water/ha. After three weeks, the degree of damage to the plants is assessed in % damage in comparison to the development of the untreated control. […] [“ai.”=“active ingredient”].

Avena [2] = experiment: Post-emergence test/greenhouse; settings: greenhouse, after three weeks
Experimental: (§1) Post-emergence Test/greenhouse Solvent: 5 parts by weight of acetone Emulsifier: 1 part by weight of alkylaryl polyglycol ether To produce a suitable preparation of active compound, 1 part by weight of active compound is mixed with the stated amount of solvent, the stated amount of emulsifier is added and the concentrate is diluted with water to the desired concentration. Test plants which have a height of 5-15 cm are sprayed with the preparation of active compound such that the particular amounts of active compound desired are applied per unit area. The concentration of the spray liquor is chosen so that the particular amounts of active compound desired are applied in 500 l of water/ha. After three weeks, the degree of damage to the plants is assessed in % damage in comparison to the development of the untreated control. The figures denote: 0%=no effect (like untreated control) 100% total destruction

Alopecurus [3] = experiment: Post-emergence test/greenhouse; settings: greenhouse, after three weeks
Experimental: as §1

Lolium [4] = experiment: Post-emergence test/greenhouse; settings: greenhouse, after three weeks
Experimental: as §1

Bromus [5] = experiment: Post-emergence test/greenhouse; settings: greenhouse, after three weeks
Experimental: as §1

Wheat [6] = experiment: Post-emergence test/greenhouse; settings: greenhouse; for degree of damage to the plants (% damage in comparison to the untreated control): Wheat, after three weeks; for compatibility with crop plants (wheat), in words: sodium salt of (I) at 60 g/ha
Experimental: as §1

[7] = test system: weeds, such as, for example, Agropyron, Alopecurus, Avena, Bromus, Lolium, Poa, Setaria and Sinapis; experiment: Pre-emergence test/greenhouse, summary for weeds; settings: greenhouse
Experimental: (§2) Pre-emergence Test/greenhouse Solvent: 5 parts by weight of acetone Emulsifier: 1 part by weight of alkylaryl polyglycol ether To produce a suitable preparation of active compound, 1 part by weight of active compound is mixed with the stated amount of solvent, the stated amount of emulsifier is added and the concentrate is diluted with water to the desired concentration. Seeds of the test plants are sown in normal soil. After about 24 hours, the soil is sprayed with the preparation of active compound such that the particular amount of active compound desired is applied per unit area. The concentration of the spray liquor is chosen so that the particular amount of active compound desired is applied in 500 litres of water per hectare. After three weeks, the degree of damage to the plants is tested in % damage in comparison to the development of the untreated control.

Avena [8] = experiment: Pre-emergence test/greenhouse; settings: greenhouse, after three weeks
Experimental: as §2, with “control. The figures denote: 0% no effect (like untreated control) 100%=total destruction” for “control.”

Amaranthus = experiment: Pre-emergence test/greenhouse; settings: 15 g ai./ha, greenhouse, after three weeks
Experimental: as §2, with “control. The figures denote: 0% no effect (like untreated control) 100%=total destruction” for “control.”

Alopecurus [9] = experiment: Pre-emergence test/greenhouse; settings: greenhouse, after three weeks
Experimental: as §2, with “control. The figures denote: 0% no effect (like untreated control) 100%=total destruction” for “control.”

Poa = experiment: Pre-emergence test/greenhouse; settings: 15 g ai./ha, greenhouse, after three weeks
Experimental: as §2, with “control. The figures denote: 0% no effect (like untreated control) 100%=total destruction” for “control.”

Sinapis = experiment: Pre-emergence test/greenhouse; settings: 15 g ai./ha, greenhouse, after three weeks
Experimental: as §2, with “control. The figures denote: 0% no effect (like untreated control) 100%=total destruction” for “control.”

Bromus [10] = experiment: Pre-emergence test/greenhouse; settings: greenhouse, after three weeks
Experimental: as §2, with “control. The figures denote: 0% no effect (like untreated control) 100%=total destruction” for “control.”

Wheat [11] = experiment: Pre-emergence test/greenhouse; settings: greenhouse; for degree of damage to the plants (% damage in comparison to the untreated control): Wheat, after three weeks
Experimental: as §2, with “control. The figures denote: 0% no effect (like untreated control) 100%=total destruction” for “control.”

Agropyron [12] = experiment: Pre-emergence test/greenhouse; settings: 15 g ai./ha, greenhouse, after three weeks
Experimental: as §2, with “control. The figures denote: 0% no effect (like untreated control) 100%=total destruction” for “control.”

Agropyron [13] = experiment: Post-emergence test/greenhouse; settings: greenhouse, after three weeks
Experimental: as §1

Lolium [14] = experiment: Pre-emergence test/greenhouse; settings: 500 g ai./ha, greenhouse, after three weeks
Experimental: as §2, with “control. The figures denote: 0% no effect (like untreated control) 100%=total destruction” for “control.”

Setaria = experiment: Pre-emergence test/greenhouse; settings: 500 g ai./ha, greenhouse, after three weeks
Experimental: as §2, with “control. The figures denote: 0% no effect (like untreated control) 100%=total destruction” for “control.”

SMILES	herbicidal activity (in words, compared with the sodium salt of (I)) [1]	herbicidal activity (in words, compared with the sodium salt of (I)) [7]	degree of damage to the plants (% damage in comparison to the untreated control) (Avena [8]; 15 g ai./ha) [%]	degree of damage to the plants (% damage in comparison to the untreated control) (Amaranthus) [%]	degree of damage to the plants (% damage in comparison to the untreated control) (Poa) [%]	degree of damage to the plants (% damage in comparison to the untreated control) (Sinapis) [%]	degree of damage to the plants (% damage in comparison to the untreated control) (Wheat [11]; 15 g ai./ha) [%]	degree of damage to the plants (% damage in comparison to the untreated control) (Agropyron [12]) [%]	degree of damage to the plants (% damage in comparison to the untreated control) (Avena [2]; 60 g ai./ha) [%]	degree of damage to the plants (% damage in comparison to the untreated control) (Alopecurus [3]; 60 g ai./ha) [%]	degree of damage to the plants (% damage in comparison to the untreated control) (Lolium [4]; 60 g ai./ha) [%]	degree of damage to the plants (% damage in comparison to the untreated control) (Bromus [5]; 60 g ai./ha) [%]	degree of damage to the plants (% damage in comparison to the untreated control) (Wheat [6]; 60 g ai./ha) [%]	compatibility with crop plants (wheat), in words (Wheat [6])	degree of damage to the plants (% damage in comparison to the untreated control) (Agropyron [13]; 60 g ai./ha) [%]	further results
CCCOn1c(C)nn(C(=O)NS(=O)(=O)c2ccccc2C(=O)OC)c1=O [(E), 2-(2-Methoxyxcarbonyl-phenylsulphonylaminocarbonyl)-4-propoxy-5-methyl-2,4-dihydro-3H-1,2,4-triazol-3-one]	considerably weaker herbicidal activity	considerably weaker herbicidal activity	–	–	–	–	–	–	–	–	–	–	–	–	–	degree of damage to the plants (% damage in comparison to the untreated control) (Avena [2]; 250 g ai./ha): 0%; degree of damage to the plants (% damage in comparison to the untreated control) (Alopecurus [3]; 250 g ai./ha): 70%; degree of damage to the plants (% damage in comparison to the untreated control) (Lolium [4]; 250 g ai./ha): 50%; degree of damage to the plants (% damage in comparison to the untreated control) (Bromus [5]; 250 g ai./ha): 50%; degree of damage to the plants (% damage in comparison to the untreated control) (Wheat [6]; 250 g ai./ha): 0%
CCCOc1nn(C(=O)NS(=O)(=O)c2ccccc2C(=O)OC)c(=O)n1CC [(F), 2-(2-Methoxycarbonyl-phenylsulphonylaminocarbonyl)-4-ethyl-5-propoxy-2,4-dihydro-3H-1,2,4-triazol-3-one]	considerably weaker herbicidal activity	considerably weaker herbicidal activity	0	70	0	70	0	0	40	50	30	50	20	not entirely compatible with wheat	50	degree of damage to the plants (% damage in comparison to the untreated control) (Alopecurus [9]; 15 g ai./ha): 40%; degree of damage to the plants (% damage in comparison to the untreated control) (Bromus [10]; 15 g ai./ha): 20%
CCCOc1nn(C(=O)NS(=O)(=O)c2ccccc2C(=O)OCC)c(=O)n1C [(D), 2-(2-Ethoxycarbonyl-phenylsulphonylaminocarbonyl)-4-methyl-5-propoxy-2,4-dihydro-3H-1,2,4-triazol-3-one]	considerably weaker herbicidal activity	considerably weaker herbicidal activity	–	–	–	–	–	–	20	–	30	80	0	–	70	–
CCCCOc1nn(C(=O)NS(=O)(=O)c2ccccc2C(=O)OC)c(=O)n1C [(A), 2-(2-Methoxycarbonyl-phenylsulphonylaminocarbonyl)-4-methyl-5-butoxy-2,4-dihydro-3H-1,2,4-triazol-3-one]	considerably weaker herbicidal activity	considerably weaker herbicidal activity	–	–	–	–	–	–	50	0	0	0	0	–	0	degree of damage to the plants (% damage in comparison to the untreated control) (Avena [8]; 500 g ai./ha): 0%; degree of damage to the plants (% damage in comparison to the untreated control) (Alopecurus [9]; 500 g ai./ha): 20%; degree of damage to the plants (% damage in comparison to the untreated control) (Lolium [14]): 0%; degree of damage to the plants (% damage in comparison to the untreated control) (Setaria): 0%; degree of damage to the plants (% damage in comparison to the untreated control) (Bromus [10]; 500 g ai./ha): 30%; degree of damage to the plants (% damage in comparison to the untreated control) (Wheat [11]; 500 g ai./ha): 0%
COC(=O)c1ccccc1S(=O)(=O)NC(=O)n1nc(OC(C)C)n(C)c1=O.[Na] [(C), 2-(2-Methoxycarbonyl-phenylsulphonylaminocarbonyl)-4-methyl-5-isopropoxy-2,4-dihydro-3H-1,2,4-triazol-3-one-sodium salt]	considerably weaker herbicidal activity	considerably weaker herbicidal activity	–	–	–	–	–	–	50	70	70	70	0	–	60	–
CCOc1nn(C(=O)NS(=O)(=O)c2ccccc2C(=O)OC)c(=O)n1C [(B), 2-(2-Methoxycarbonyl-phenylsulphonylaminocarbonyl)-4-methyl-5-ethoxy-2,4-dihydro-3H-1,2,4-triazol-3-one-sodium salt]	–	–	60	70	70	70	40	40	–	–	–	–	–	not entirely compatible with wheat	–	compatibility with crop plants (wheat), in words (Wheat [11]; sodium salt of (I) at 15 g/ha to 60 g/ha): not entirely compatible with wheat; degree of damage to the plants (% damage in comparison to the untreated control) (Avena [2]; 30 g ai./ha): 90%; degree of damage to the plants (% damage in comparison to the untreated control) (Alopecurus [3]; 30 g ai./ha): 90%; degree of damage to the plants (% damage in comparison to the untreated control) (Lolium [4]; 30 g ai./ha): 90%; degree of damage to the plants (% damage in comparison to the untreated control) (Bromus [5]; 30 g ai./ha): 80%; degree of damage to the plants (% damage in comparison to the untreated control) (Wheat [6]; 30 g ai./ha): 60%; degree of damage to the plants (% damage in comparison to the untreated control) (Agropyron [13]; 30 g ai./ha): 90%
